{"source": "paper PMC3819103", "about": "(Magnetic resonance in medicine : official journal of the …, 2010)", "origin": "cited, not measured here", "system": "blood-brain barrier", "data": [{"substance": "β-Ala(Mys)-Arg-Arg-Arg-Arg-Arg-Arg-Arg-Cys-NH2 [MPAP]", "values": [{"measurement": "Ability to cross the blood-brain barrier and localization", "value": "could cross the blood-brain barrier, followed by localization to the cytoplasm"}, {"measurement": "Delivery of a near-infrared dye across the blood-brain barrier", "setting": "earlier studies", "value": "can deliver a near-infrared dye across the blood-brain barrier"}]}]}
